Source: PubChem BioAssay (NCI)
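Method: 48-hour compound exposure of cells in 96-well plates, five concentrations, linear interpolation of endpoints. The concentration for full growth arrest is given as TGI.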

Assays:
Assay in all cases: NCI tumour cell line growth inhibition, 48 h
786-0 renal = tested on: 786-0 renal
A498 renal = tested on: A498 renal
A549 NSCLC = tested on: A549 NSCLC
ACHN renal = tested on: ACHN renal
BT-549 breast = tested on: BT-549 breast
CAKI-1 renal = tested on: CAKI-1 renal
CCRF-CEM leukemia = tested on: CCRF-CEM leukemia
COLO 205 colon = tested on: COLO 205 colon
DU-145 prostate = tested on: DU-145 prostate
EKVX NSCLC = tested on: EKVX NSCLC
HCC-2998 colon = tested on: HCC-2998 colon
HCT-116 colon = tested on: HCT-116 colon
HCT-15 colon = tested on: HCT-15 colon
HL-60(TB) leukemia = tested on: HL-60(TB) leukemia
HOP-62 NSCLC = tested on: HOP-62 NSCLC
HOP-92 NSCLC = tested on: HOP-92 NSCLC
HS 578T breast = tested on: HS 578T breast
HT29 colon = tested on: HT29 colon
IGROV1 ovarian = tested on: IGROV1 ovarian
K-562 leukemia = tested on: K-562 leukemia
KM12 colon = tested on: KM12 colon
LOX IMVI melanoma = tested on: LOX IMVI melanoma
M14 melanoma = tested on: M14 melanoma
MALME-3M melanoma = tested on: MALME-3M melanoma
MCF7 breast = tested on: MCF7 breast
MDA-MB-231 breast = tested on: MDA-MB-231 breast
MDA-MB-435 = tested on: MDA-MB-435
MDA-N = tested on: MDA-N
MOLT-4 leukemia = tested on: MOLT-4 leukemia
NCI-H226 lung = tested on: NCI-H226 lung
NCI-H23 lung = tested on: NCI-H23 lung
NCI-H460 lung = tested on: NCI-H460 lung
NCI-H522 lung = tested on: NCI-H522 lung
NCI/ADR-RES ovarian = tested on: NCI/ADR-RES ovarian
OVCAR-3 ovarian = tested on: OVCAR-3 ovarian
OVCAR-4 ovarian = tested on: OVCAR-4 ovarian
OVCAR-5 ovarian = tested on: OVCAR-5 ovarian
OVCAR-8 ovarian = tested on: OVCAR-8 ovarian
PC-3 prostate = tested on: PC-3 prostate
RPMI-8226 leukemia = tested on: RPMI-8226 leukemia
RXF 393 renal = tested on: RXF 393 renal
SF-268 CNS = tested on: SF-268 CNS
SF-295 CNS = tested on: SF-295 CNS
SF-539 CNS = tested on: SF-539 CNS
SK-MEL-2 melanoma = tested on: SK-MEL-2 melanoma
SK-MEL-28 melanoma = tested on: SK-MEL-28 melanoma
SK-MEL-5 melanoma = tested on: SK-MEL-5 melanoma
SK-OV-3 ovarian = tested on: SK-OV-3 ovarian
SN12C renal = tested on: SN12C renal
SNB-19 CNS = tested on: SNB-19 CNS
SNB-75 CNS = tested on: SNB-75 CNS
SW-620 colon = tested on: SW-620 colon
T-47D breast = tested on: T-47D breast
TK-10 renal = tested on: TK-10 renal
U251 CNS = tested on: U251 CNS
UACC-257 melanoma = tested on: UACC-257 melanoma
UACC-62 melanoma = tested on: UACC-62 melanoma

CC1=C(CO)C(=O)O[C@@H]([C@@H](C)[C@H]2CC[C@H]3[C@@H]4C[C@@H](O)[C@@]5(O)CC=CC(=O)[C@]5(C)[C@H]4CC[C@]23C)C1
TGI (786-0 renal): 90.8 µM | TGI (A498 renal): 39.5 µM | TGI (A549 NSCLC): > 100 µM | TGI (ACHN renal): 75.2 µM | TGI (BT-549 breast): 93.8 µM | TGI (CAKI-1 renal): > 100 µM | TGI (CCRF-CEM leukemia): > 100 µM | TGI (COLO 205 colon): > 100 µM | TGI (DU-145 prostate): > 100 µM | TGI (EKVX NSCLC): > 100 µM | TGI (HCC-2998 colon): > 100 µM | TGI (HCT-116 colon): 55.5 µM | TGI (HCT-15 colon): 32.5 µM | TGI (HL-60(TB) leukemia): > 100 µM | TGI (HOP-62 NSCLC): > 100 µM | TGI (HOP-92 NSCLC): > 100 µM | TGI (HS 578T breast): > 100 µM | TGI (HT29 colon): > 100 µM | TGI (IGROV1 ovarian): 31.6 µM | TGI (K-562 leukemia): > 100 µM | TGI (KM12 colon): 58.8 µM | TGI (LOX IMVI melanoma): > 100 µM | TGI (M14 melanoma): > 100 µM | TGI (MALME-3M melanoma): 44.7 µM | TGI (MCF7 breast): > 100 µM | TGI (MDA-MB-231 breast): > 100 µM | TGI (MDA-MB-435): > 100 µM | TGI (MDA-N): > 100 µM | TGI (MOLT-4 leukemia): > 100 µM | TGI (NCI-H226 lung): > 100 µM | TGI (NCI-H23 lung): 49.4 µM | TGI (NCI-H460 lung): 38.3 µM | TGI (NCI-H522 lung): 30.7 µM | TGI (NCI/ADR-RES ovarian): 64.2 µM | TGI (OVCAR-3 ovarian): > 100 µM | TGI (OVCAR-4 ovarian): > 100 µM | TGI (OVCAR-5 ovarian): > 100 µM | TGI (OVCAR-8 ovarian): > 100 µM | TGI (PC-3 prostate): > 100 µM | TGI (RPMI-8226 leukemia): 92.2 µM | TGI (RXF 393 renal): 68.6 µM | TGI (SF-268 CNS): > 100 µM | TGI (SF-295 CNS): > 100 µM | TGI (SF-539 CNS): > 100 µM | TGI (SK-MEL-2 melanoma): > 100 µM | TGI (SK-MEL-28 melanoma): > 100 µM | TGI (SK-MEL-5 melanoma): > 100 µM | TGI (SK-OV-3 ovarian): > 100 µM | TGI (SN12C renal): > 100 µM | TGI (SNB-19 CNS): > 100 µM | TGI (SNB-75 CNS): > 100 µM | TGI (SW-620 colon): 47.4 µM | TGI (T-47D breast): > 100 µM | TGI (TK-10 renal): > 100 µM | TGI (U251 CNS): > 100 µM | TGI (UACC-257 melanoma): > 100 µM | TGI (UACC-62 melanoma): > 100 µM
